US10894786B2, “Substituted pyrazole derivatives as selective CDK12/13 inhibitors” (Aurigene Discovery Technologies Limited, priority 2018, dated 2021)

Assays:
[1] = molecular target: T1, CDK12 (Homo sapiens (Human), UniProt Q9NYV4); test: Biochemical assay for CDK12 (Kd determination), kinase-tagged phage/qPCR competition binding
Procedure: Kinase-tagged T7 phage strains were grown in parallel in 24-well blocks in an E. coli host derived from the BL21 strain. E. coli were grown to log-phase and infected with T7 phage from a frozen stock (multiplicity of infection=0.4) and incubated with shaking at 32° C. until lysis (90-150 minutes). The lysates were centrifuged (6,000×g) and filtered (0.2 μm) to remove cell debris. The remaining kinases were produced in HEK-293 cells and subsequently tagged with DNA for qPCR detection. […] The liganded beads were blocked with excess biotin and washed with blocking buffer (SeaBlock (Pierce), 1% BSA, 0.05% Tween 20, 1 mM DTT) to remove unbound ligand and to reduce non-specific phage binding. […] Test compounds were prepared as 40× stocks in 100% DMSO and directly diluted into the assay. All reactions were performed in polypropylene 384-well plates in a final volume of 0.02 ml. […] The kinase concentration in the eluates was measured by qPCR.
Target sequence in this assay (Q9NYV4 whole entry, species assumed): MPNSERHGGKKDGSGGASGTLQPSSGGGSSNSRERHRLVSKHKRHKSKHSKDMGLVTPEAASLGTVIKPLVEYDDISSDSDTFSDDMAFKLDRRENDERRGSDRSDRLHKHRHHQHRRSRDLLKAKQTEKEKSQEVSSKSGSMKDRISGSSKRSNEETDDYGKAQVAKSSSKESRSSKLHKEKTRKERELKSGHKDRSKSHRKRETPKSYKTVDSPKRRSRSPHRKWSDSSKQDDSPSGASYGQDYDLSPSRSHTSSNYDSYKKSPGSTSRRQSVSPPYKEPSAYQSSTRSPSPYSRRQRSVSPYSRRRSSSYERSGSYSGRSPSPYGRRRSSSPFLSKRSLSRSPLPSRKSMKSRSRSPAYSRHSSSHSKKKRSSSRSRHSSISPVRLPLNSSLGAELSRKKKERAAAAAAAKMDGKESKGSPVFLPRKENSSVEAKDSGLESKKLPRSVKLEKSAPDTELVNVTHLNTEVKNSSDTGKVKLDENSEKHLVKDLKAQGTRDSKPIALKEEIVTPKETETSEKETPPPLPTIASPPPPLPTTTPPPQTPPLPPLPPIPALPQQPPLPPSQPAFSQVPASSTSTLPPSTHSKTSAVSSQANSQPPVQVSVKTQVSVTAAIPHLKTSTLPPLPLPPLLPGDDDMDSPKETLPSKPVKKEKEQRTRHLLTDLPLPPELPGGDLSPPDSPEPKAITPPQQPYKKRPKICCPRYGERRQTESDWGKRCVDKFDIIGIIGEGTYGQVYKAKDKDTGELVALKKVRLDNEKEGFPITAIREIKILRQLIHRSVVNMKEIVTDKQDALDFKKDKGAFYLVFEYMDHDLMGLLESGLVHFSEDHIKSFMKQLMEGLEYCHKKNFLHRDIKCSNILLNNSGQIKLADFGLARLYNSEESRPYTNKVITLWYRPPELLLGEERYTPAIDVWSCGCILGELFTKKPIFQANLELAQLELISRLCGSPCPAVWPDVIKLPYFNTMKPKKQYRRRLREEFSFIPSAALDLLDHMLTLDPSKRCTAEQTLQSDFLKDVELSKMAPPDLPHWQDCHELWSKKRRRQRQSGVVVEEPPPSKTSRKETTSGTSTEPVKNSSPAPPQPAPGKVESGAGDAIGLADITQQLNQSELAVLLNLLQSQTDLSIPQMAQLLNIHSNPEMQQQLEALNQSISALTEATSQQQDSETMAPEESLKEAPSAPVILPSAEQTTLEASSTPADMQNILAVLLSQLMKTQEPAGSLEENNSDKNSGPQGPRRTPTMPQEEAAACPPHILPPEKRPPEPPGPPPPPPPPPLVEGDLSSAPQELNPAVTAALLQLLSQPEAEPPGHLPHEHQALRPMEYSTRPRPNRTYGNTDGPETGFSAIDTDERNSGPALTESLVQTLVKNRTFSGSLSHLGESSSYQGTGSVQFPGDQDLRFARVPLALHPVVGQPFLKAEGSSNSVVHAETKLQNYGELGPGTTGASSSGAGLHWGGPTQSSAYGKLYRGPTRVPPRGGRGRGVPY

[2] = molecular target: CDK13 (Homo sapiens (Human), UniProt Q14004); test: Biochemical assay for CDK13, LanthaScreen Eu Kinase Binding Assay; conditions: for IC50: kinase tracer 236 100 nM; for Ratio CDK7/CDK13: ratio of IC50
CDK13, sequence (Q14004 whole entry, looked up, species assumed): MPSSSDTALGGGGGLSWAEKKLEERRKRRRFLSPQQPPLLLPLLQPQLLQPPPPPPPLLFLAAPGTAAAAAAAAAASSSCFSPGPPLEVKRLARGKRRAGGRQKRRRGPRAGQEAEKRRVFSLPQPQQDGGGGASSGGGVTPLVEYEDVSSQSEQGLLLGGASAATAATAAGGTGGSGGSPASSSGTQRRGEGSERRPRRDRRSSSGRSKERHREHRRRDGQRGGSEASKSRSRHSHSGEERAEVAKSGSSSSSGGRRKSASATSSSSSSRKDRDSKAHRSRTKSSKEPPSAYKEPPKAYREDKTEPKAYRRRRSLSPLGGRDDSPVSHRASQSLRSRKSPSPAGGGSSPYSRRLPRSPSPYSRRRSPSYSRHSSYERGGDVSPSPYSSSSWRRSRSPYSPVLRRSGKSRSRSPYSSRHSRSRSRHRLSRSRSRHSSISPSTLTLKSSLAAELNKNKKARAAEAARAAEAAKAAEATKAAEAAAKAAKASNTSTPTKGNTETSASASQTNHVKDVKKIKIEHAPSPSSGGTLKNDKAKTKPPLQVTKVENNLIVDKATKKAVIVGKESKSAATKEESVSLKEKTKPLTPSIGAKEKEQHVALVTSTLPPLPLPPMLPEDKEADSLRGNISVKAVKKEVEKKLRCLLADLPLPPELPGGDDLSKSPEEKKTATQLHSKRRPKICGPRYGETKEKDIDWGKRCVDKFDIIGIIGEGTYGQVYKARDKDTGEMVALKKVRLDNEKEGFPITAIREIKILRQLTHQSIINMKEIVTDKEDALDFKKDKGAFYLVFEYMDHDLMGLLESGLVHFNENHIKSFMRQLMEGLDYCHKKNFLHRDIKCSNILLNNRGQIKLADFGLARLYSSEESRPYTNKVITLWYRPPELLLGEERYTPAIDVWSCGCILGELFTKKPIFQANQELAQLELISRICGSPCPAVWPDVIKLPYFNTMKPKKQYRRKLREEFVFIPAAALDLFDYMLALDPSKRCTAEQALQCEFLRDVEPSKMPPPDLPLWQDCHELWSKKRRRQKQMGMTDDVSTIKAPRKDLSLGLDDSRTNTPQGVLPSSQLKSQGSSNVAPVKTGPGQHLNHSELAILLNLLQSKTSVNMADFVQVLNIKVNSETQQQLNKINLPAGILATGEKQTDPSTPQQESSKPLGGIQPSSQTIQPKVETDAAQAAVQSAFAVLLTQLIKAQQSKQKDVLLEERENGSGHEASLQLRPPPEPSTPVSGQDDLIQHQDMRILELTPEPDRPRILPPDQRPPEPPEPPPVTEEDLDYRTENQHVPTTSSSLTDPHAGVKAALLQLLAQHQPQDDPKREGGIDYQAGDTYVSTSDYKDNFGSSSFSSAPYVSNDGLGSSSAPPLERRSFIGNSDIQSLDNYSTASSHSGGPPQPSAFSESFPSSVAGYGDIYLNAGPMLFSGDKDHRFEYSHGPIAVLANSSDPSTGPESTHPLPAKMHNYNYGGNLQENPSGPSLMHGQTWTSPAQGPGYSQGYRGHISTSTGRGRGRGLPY
CDK13, sequence (O75909 whole entry partner, looked up, species assumed): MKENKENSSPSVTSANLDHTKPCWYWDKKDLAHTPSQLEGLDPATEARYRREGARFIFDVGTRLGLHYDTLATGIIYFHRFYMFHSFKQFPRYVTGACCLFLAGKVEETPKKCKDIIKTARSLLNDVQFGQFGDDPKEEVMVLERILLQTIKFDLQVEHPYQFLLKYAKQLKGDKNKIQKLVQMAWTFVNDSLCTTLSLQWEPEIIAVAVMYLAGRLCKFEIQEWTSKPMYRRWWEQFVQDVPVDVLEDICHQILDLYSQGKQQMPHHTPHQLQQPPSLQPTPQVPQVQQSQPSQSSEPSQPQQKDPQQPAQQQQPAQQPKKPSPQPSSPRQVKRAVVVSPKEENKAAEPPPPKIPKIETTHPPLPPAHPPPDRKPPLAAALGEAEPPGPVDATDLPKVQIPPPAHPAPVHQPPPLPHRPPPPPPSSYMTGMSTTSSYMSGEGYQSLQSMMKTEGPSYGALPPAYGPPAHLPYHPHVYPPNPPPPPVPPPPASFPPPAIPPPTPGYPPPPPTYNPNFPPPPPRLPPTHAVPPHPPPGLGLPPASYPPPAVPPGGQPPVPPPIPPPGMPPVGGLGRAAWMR
Source text: Binding of an inhibitor to the kinase competes for binding with the tracer, resulting in a loss of FRET signal.

[3] = molecular target: T1, CDK12; test: Biochemical assay for CDK12 (IC50 determination), LANCE TR-FRET; conditions: for IC50: ATP 100 μM, 60 min pre-incubation
Procedure: The inhibitory activity of the test compounds was assessed by the LANCE TR-FRET assay, which detects the ATP-dependent phosphorylation of an ULight-4E-BP1 (Thr37/Thr46) substrate peptide (100 nM) by CDK12 (30 nM). Briefly, the enzyme reaction was run in reaction buffer (25 mM HEPES (pH 7.5), 10 mM MgCl2, 0.01% BSA, 0.01% Triton x, 1 mM DTT). The assay was performed in 384-well plate format. The end concentration of the ATP substrate was 100 μM, and that of the ULight-4E-BP1 (Thr37/Thr46) substrate peptide was 100 nM, and of CDK12 was 30 nM. Pre-incubation of the compound and enzyme was performed for 60 min at room temperature. After 60 min incubation at room temperature, the reaction was terminated by the addition of 40 mM EDTA and 0.5 nM Eu-labeled anti-phospho-eIF4E-binding protein (Thr37/46) antibody in LANCE detection buffer. […] The readout was calculated as (acceptor counts/donor counts)×1000. The IC50 values were derived by fitting a sigmoidal dose-response curve to a plot of assay readout over inhibitor concentration.
Target sequence in this assay (Q9NYV4 whole entry, looked up, species assumed): as the sequence (Q9NYV4 whole entry, species assumed) above
Target sequence in this assay (O75909 whole entry partner, looked up, species assumed): as the sequence (O75909 whole entry partner, looked up, species assumed) above

[4] = molecular target: CDK7 (Homo sapiens (Human), UniProt P50613); test: Biochemical assay for CDK7, LANCE TR-FRET; conditions: ATP 1 mM/100 μM, 60 min pre-incubation; read-out: CDK 7 IC50
CDK7, sequence (P50613 whole entry, looked up, species assumed): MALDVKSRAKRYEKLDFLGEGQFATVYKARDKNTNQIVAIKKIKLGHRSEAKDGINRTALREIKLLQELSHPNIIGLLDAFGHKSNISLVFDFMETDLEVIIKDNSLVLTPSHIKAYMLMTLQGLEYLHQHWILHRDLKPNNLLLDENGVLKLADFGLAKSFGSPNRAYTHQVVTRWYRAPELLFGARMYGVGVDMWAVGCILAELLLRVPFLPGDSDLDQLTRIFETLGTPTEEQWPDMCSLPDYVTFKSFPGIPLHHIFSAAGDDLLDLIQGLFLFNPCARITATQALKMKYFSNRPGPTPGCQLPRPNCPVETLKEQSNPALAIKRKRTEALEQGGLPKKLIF
CDK7, sequence (P51946 whole entry partner, looked up, species assumed): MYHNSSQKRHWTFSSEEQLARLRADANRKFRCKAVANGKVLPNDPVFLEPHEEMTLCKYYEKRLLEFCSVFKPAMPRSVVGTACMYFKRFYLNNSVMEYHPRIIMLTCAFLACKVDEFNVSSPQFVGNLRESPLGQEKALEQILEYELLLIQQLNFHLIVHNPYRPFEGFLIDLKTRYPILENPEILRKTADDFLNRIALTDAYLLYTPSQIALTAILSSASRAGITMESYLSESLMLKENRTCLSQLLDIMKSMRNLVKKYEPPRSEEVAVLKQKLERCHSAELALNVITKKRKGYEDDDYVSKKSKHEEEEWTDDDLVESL
CDK7, sequence (P51948 whole entry partner, looked up, species assumed): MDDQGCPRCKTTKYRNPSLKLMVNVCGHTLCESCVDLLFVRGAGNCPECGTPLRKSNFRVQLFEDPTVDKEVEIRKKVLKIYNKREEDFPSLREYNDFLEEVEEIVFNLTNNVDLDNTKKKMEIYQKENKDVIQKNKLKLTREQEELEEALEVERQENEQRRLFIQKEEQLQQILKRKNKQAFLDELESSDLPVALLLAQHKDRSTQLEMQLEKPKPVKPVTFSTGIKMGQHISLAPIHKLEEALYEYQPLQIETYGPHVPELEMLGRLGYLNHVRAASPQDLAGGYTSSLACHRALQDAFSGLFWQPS
Procedure: The inhibitory activity of the test compounds was assessed by the LANCE TR-FRET assay, which detects the ATP-dependent phosphorylation of an ULight-myelin basic protein (MBP) substrate peptide (100 nM) by CDK7 (10 nM). Briefly, the enzyme reaction was run in reaction buffer (20 mM HEPES (pH 7.5), 10 mM MgCl2, 0.01% Triton x, 100 μM Sodium Orthovanadate, 1 mM DTT). The assay was performed in 384-well plate. The end concentration of the ATP substrate was 1 mM/100 μM, and that of the ULight-MBP substrate peptide was 100 nM, and of CDK7 was 10 nM. Pre-incubation of the compound and enzyme was performed for 60 min at room temperature. After 60 min incubation at room temperature, the reaction was terminated by the addition of 40 mM EDTA and 1 nM Eu-labeled anti-phospho-MBP-binding protein antibody in the buffer. […] The readout was calculated as (acceptor counts/donor counts)×1000. The IC50 values were derived by fitting a sigmoidal dose-response curve to a plot of assay readout over inhibitor concentration.

Compound	Kd [1]	IC50 [2]	IC50 [3]	IC50 [4]	Ratio CDK7/CDK13 [2]	Ratio CDK7/CDK12 [3]
C=CC(=O)N1CCN(c2ccc(C(C)C(=O)Nc3cc(C4CC4)[nH]n3)cc2)CC1 (single isomer, unassigned) [Compound 18, 2-(4-(4-acryloylpiperazin-1-yl)phenyl)-N-(5-cyclopropyl-1H-pyrazol-3-yl)propanamide]	25 to 100 nM	11.7 nM	238 nM	2320 nM		
CC#CC(=O)N1CC=C(c2ccc(C(C)C(=O)Nc3cc(C4CC4)[nH]n3)cn2)CC1 (stereo not drawn) [Compound 51, 2-(1′-(but-2-ynoyl)-1′,2′,3′,6′-tetrahydro-[2,4′-bipyridin]-5-yl)-N-(5-cyclopropyl-1H-pyrazol-3-yl)propanamide]		25 nM	203 nM	1690 nM	67.68	8.33
C=CC(=O)N1CC=C(c2ccc(C(C)C(=O)Nc3cc(C4CC4)[nH]n3)cc2F)CC1 (stereo not drawn) [Compound 45, 2-(4-(1-acryloyl-1,2,3,6-tetrahydropyridin-4-yl)-3-fluorophenyl)-N-(5-cyclopropyl-1H-pyrazol-3-yl)propanamide]		260 nM	445 nM	5760 nM	22.15	12.94
C=CC(=O)N1CCC=C(c2ccc(C(C)C(=O)Nc3cc(C4CC4)[nH]n3)cc2)CC1 (stereo not drawn) [Compound 9, 2-(4-(1-acryloyl-2,3,6,7-tetrahydro-1H-azepin-4-yl)phenyl)-N-(5-cyclopropyl-1H-pyrazol-3-yl)propanamide]	25 to 100 nM	21 nM	240 nM	6580 nM	313.57	27.43
C=CC(=O)NC1CCC(c2ccc(C(C)C(=O)Nc3cc(C4CC4)n[nH]3)cc2)CC1 (single isomer, unassigned) [Compound 11, N-(4-(4-(1-((5-cyclopropyl-1H-pyrazol-3-yl)amino)-1-oxopropan-2-yl)phenyl)cyclohexyl)acrylamide]	25 to 100 nM	45 nM	1020 nM	3650 nM		
C=CC(=O)NC1CC=C(c2ccc(C(C)C(=O)Nc3cc(C4CC4)[nH]n3)cc2)CC1 (stereo not drawn) [Compound 8, N-(4′-(1 ((5-cyclopropyl-1H-pyrazol-3-yl)amino)-1-oxopropan-2-yl)-2,3,4,5-tetrahydro-[1,1′-biphenyl]-4-yl)acrylamide]	25 to 100 nM	19 nM	380 nM			
C=CC(=O)N1CC=C(c2ccc(C(C)C(=O)Nc3cc(C4CC4)[nH]n3)cn2)CC1 (stereo not drawn) [Compound 4, 2-(1′-acryloyl-1′,2′,3′,6′-tetrahydro-[2,4′-bipyridin]-5-yl)-N-(5-cyclopropyl-1H-pyrazol-3-yl)propanamide]	< 25 nM	3 nM	72 nM	1710 nM	570.0	23.75
C=CC(=O)N1CCN(c2ccc(C(C)C(=O)Nc3cc(C4CC4)[nH]n3)cn2)CC1 (stereo not drawn) [Compound 20, 2-(6-(4-acryloylpiperazin-1-yl)pyridin-3-yl)-N-(5-cyclopropyl-1H-pyrazol-3-yl)propanamide]	< 25 nM	94 nM	99 nM	2090 nM	22.23	21.11
C=CC(=O)N1CCN(c2ccc(C(C)C(=O)Nc3cc(C4CC4)[nH]n3)cc2)CC1 (single isomer, unassigned) [Compound 19, 2-(4-(4-acryloylpiperazin-1-yl)phenyl)-N-(5-cyclopropyl-1H-pyrazol-3-yl)propanamide]	> 100 nM	5810 nM				
C=CC(=O)N1CCCC(c2ccc(C(C)C(=O)Nc3cc(C4CC4)[nH]n3)cn2)C1 (stereo not drawn) [Compound 41, 2-(6-(1-acryloylpiperidin-3-yl)pyridin-3-yl)-N-(5-cyclopropyl-1H-pyrazol-3-yl)propanamide]		29 nM	354 nM	3510 nM	121.03	9.91
C=CC(=O)N1CC=C(c2ccc(C(C(=O)Nc3cc(C4CC4)[nH]n3)C(C)C)cn2)CC1 (stereo not drawn) [Compound 7, 2-(1′-acryloyl-1′,2′,3′,6′-tetrahydro-[2,4′-bipyridin]-5-yl)-N-(5-cyclopropyl-1H-pyrazol-3-yl)-3-methylbutanamide]	> 100 nM	398 nM		744 nM	1.86	
C=CC(=O)N1CCC(c2ccc(C(C)C(=O)Nc3cc(C4CC4)[nH]n3)cn2)CC1 (stereo not drawn) [Compound 13, 2-(6-(1-acryloylpiperidin-4-yl)pyridin-3-yl)-N-(5-cyclopropyl-1H-pyrazol-3-yl)propanamide]		28 nM	58 nM	> 10000 nM	357.14	172.41
C=CC(=O)N1CCC=C(c2ccc(C(C)C(=O)Nc3cc(C4CC4)[nH]n3)cn2)C1 (stereo not drawn) [Compound 35, 2-(1′-acryloyl-1′,2′,5′,6′-tetrahydro-[2,3′-bipyridin]-5-yl)-N-(5-cyclopropyl-1H-pyrazol-3-yl)propanamide]	< 25 nM	6 nM	30 nM	153 nM	25.5	5.1
C=CC(=O)N1CCC=C(c2ccc(C(C)C(=O)Nc3cc(C4CC4)[nH]n3)cn2)C1 (single isomer, unassigned) [Compound 36, 2-(1′-acryloyl-1′,2′,5′,6′-tetrahydro-[2,3′-bipyridin]-5-yl)-N-(5-cyclopropyl-1H-pyrazol-3-yl)propanamide]	25 to 100 nM	153 nM	686 nM			
C=CC(=O)N1CC=C(c2ccc(C(C)C(=O)Nc3cc(C4CC4)[nH]n3)cn2)CC1 (single isomer, unassigned) [Compound 5, 2-(1′-acryloyl-1′,2′,3′,6′-tetrahydro-[2,4′-bipyridin]-5-yl)-N-(5-cyclopropyl-1H-pyrazol-3-yl)propanamide]	25 to 100 nM	77 nM	1310 nM	> 10000 nM	129.87	7.64
C=CC(=O)N1CC=C(c2ccc(C(C(=O)Nc3cc(C4CC4)[nH]n3)C(C)C)cc2)CC1 (stereo not drawn) [Compound 3, 2-(4-(1-acryloyl-1,2,3,6-tetrahydropyridin-4-yl)phenyl)-N-(5-cyclopropyl-1H-pyrazol-3-yl)-3-methylbutanamide]	> 100 nM	101 nM		506 nM	5.0	
C=CC(=O)NC1CCN(c2ccc(C(C)C(=O)Nc3cc(C4CC4)[nH]n3)cc2)CC1 (stereo not drawn) [Compound 21, N-(1-(4-(1-((5-cyclopropyl-1H-pyrazol-3-yl)amino)-1-oxopropan-2-yl)phenyl)piperidin-4-yl)acrylamide]	< 25 nM	73 nM	235 nM			
C=CC(=O)N1CC=C(c2ccc(C(C)C(=O)Nc3cc(C4CC4)[nH]n3)cn2)C1 (stereo not drawn) [Compound 38, 2-(6-(1-acryloyl-2,5-dihydro-1H-pyrrol-3-yl)pyridin-3-yl)-N-(5-cyclopropyl-1H-pyrazol-3-yl)propanamide]		100 nM	34 nM	1010 nM	10.1	29.7
C=CC(=O)N1CCC=C(c2ccc(C(C)C(=O)Nc3cc(C4CC4)[nH]n3)cc2F)C1 (stereo not drawn) [Compound 42, 2-(4-(1-acryloyl-1,2,5,6-tetrahydropyridin-3-yl)-3-fluorophenyl)-N-(5-cyclopropyl-1H-pyrazol-3-yl)propanamide]		87 nM	14 nM	440 nM	5.05	31.42
